Tested on: 293T cells stably transfected with a BCRM-1 expression vector
Assay: clonogenic assays of stably transfected 293T cells with cisplatin
Type: cell-based
Conditions: clone with the highest level of BCRM-1 vs control vector transfectants, FIG. 3
Text: To investigate whether BCRM-1 could render cells resistant to DNA-damaging agents, 293T cells were stably transfected with a BCRM-1 expression vector (FIG. 3). The BCRM-1 full length EcoRI-XhoI fragment was cloned into the EcoRI-XhoI sites of the pcDNA6/Bsd vector (Clontech, Palo Alto, Calif.). 293T cells were transfected with the BCRM/bsd vector or an empty pcDNA/bsd vector, respectively, by the method described in Example 8 above; Stable transfectants were selected through serial passages in the presence of blasticidin 10 μg/ml (Clontech, Palo Alto, Calif.). These blasticidin-resistant clones were isolated and repicked using the same selection procedure. One of these clones expressed the highest level of BCRM-1 by Western blotting. It was further tested in clonogenic assays and found to be 5-10 times more resistant to DNA damaging agent cisplatin than 293T cells stably transfected with the control vector (FIG. 3).

N.N.[Cl][Pt][Cl] [cisplatin]
resistance to cisplatin of the BCRM-1 expressing clone relative to 293T cells stably transfected with the control vector: 5-10 times
